# Square brackets hold non-standard residues; d marks the D form. * marks the point of attachment. pGlu = O=C1CC[C@@H](C(=O)O)N1; Octanoyl = CCCCCCCC(=O)*
# Assay: Oxygen saturation in mouse model of LPS-inflamed lungs (Rodent Pulse Oximeter)
# Format: in vivo, Balb/C female mice
# Experimental: Evaluation of the effect of ZEP3Na administration via inhalation on oxygen saturation in a mouse model of inflamed lungs by the lipopolysaccharides (LPS) was performed. Oxygen saturation testing was performed at several time points on mice that have been anesthetized by isoflurane. A sensor was attached to the hind foot of the mice and the percentage of oxygen in the blood was measured using the Rodent Pulse Oximeter instrument (Kent Scientific).
# Following LPS intratracheal instillation, a marked reduction in blood oxygen saturation levels was detected. ZEP3Na was then administered by inhalation at two doses 6 h and 14 h after LPS administration and the effect of ZEP3Na on blood oxygen saturation was monitored 0, 2, 6, 12, 24 and 48 hours following ZEP3Na administration. Saturation data was analyzed by ANOVA followed by Tukey-Kramer test. Significance level was defined as ∝=0.05.
substance,measurement,setting,value
pGlu-Asn-Trp-Lys(Octanoyl)-OH ([pGlu]NWK(Octanoyl)-OH; SMILES CCCCCCCC(=O)NCCCC[C@H](NC(=O)[C@H](Cc1c[nH]c2ccccc12)NC(=O)[C@H](CC(N)=O)NC(=O)[C@@H]1CCC(=O)N1)C(=O)O) [ZEP3],time after administration over which increase in oxygen saturation was exerted,acute inflamed lung model,at least 48 hours
same,time following treatment at which increase in oxygen saturation is statistically significant,"administration by inhalation, LPS model",12 h
